Measured values taken from ChEMBL document CHEMBL1138108, “Syntheses and evaluation of novel fatty acid-second-generation taxoid conjugates as promising anticancer agents” (Bioorg Med Chem Lett, 2006).
Activity calls are given as the source filed them. The rule behind the calls is not given here.

How the values were obtained:
[1] = system: MCF7S; assay: Cytotoxicity against human mammary tumor cell line MCF7-S; format: functional, cell-based
[2] = system: MCF7R; assay: Cytotoxicity against human mammary tumor cell line MCF7-R; format: functional, cell-based
[3] = system: DLD-1; assay: Efficacy against Pgp+ human colon tumor xenograft DLD1 in SCID mice at 75 mg/kg, iv; format: functional, organism-based; design: dose 75 mg/kg
[4] = system: DLD-1; assay: Efficacy against Pgp+ human colon tumor xenograft DLD1 in SCID mice at 240 mg/kg, iv; format: functional, organism-based; design: dose 240 mg/kg
[5] = system: A121; assay: Efficacy against Pgp- human ovarian tumor xenograft A121 in SCID mice at 90 mg/kg, iv

| SMILES | IC50 [1] | IC50 [2] | Activity [3] | Activity [4] | Activity [5] |
| --- | --- | --- | --- | --- | --- |
| CC(=O)O[C@@]12CO[C@@H]1C[C@H](O)[C@@]1(C)C(=O)[C@H](O)C3=C(C)[C@@H](OC(=O)[C@H](O)[C@@H](NC(=O)OC(C)(C)C)c4ccccc4)C[C@@](O)([C@@H](OC(=O)c4ccccc4)[C@H]21)C3(C)C [DOCETAXEL] | 1 nM | 723 nM |  |  |  |
| CCC(=O)O[C@H]1C(=O)[C@@]2(C)[C@H]([C@H](OC(=O)c3ccccc3)[C@]3(O)C[C@H](OC(=O)[C@H](O)[C@H](CC(C)C)NC(=O)OC(C)(C)C)C(C)=C1C3(C)C)[C@]1(OC(C)=O)CO[C@@H]1C[C@@H]2O | 0.35 nM | 5.1 nM |  |  |  |
| CC/C=C\C/C=C\C/C=C\CCCCCCCC(=O)O[C@@H](C(=O)O[C@H]1C[C@@]2(O)[C@@H](OC(=O)c3ccccc3)C3[C@](C)(C(=O)[C@H](OC(=O)CC)C(=C1C)C2(C)C)[C@@H](O)C[C@H]1OC[C@@]31OC(C)=O)[C@H](C=C(C)C)NC(=O)OC(C)(C)C (some centres not stated) |  |  | Active |  |  |
| CCCCC/C=C\C/C=C\CCCCCCCC(=O)O[C@@H](C(=O)O[C@H]1C[C@@]2(O)[C@@H](OC(=O)c3ccccc3)C3[C@](C)(C(=O)[C@H](OC(=O)CC)C(=C1C)C2(C)C)[C@@H](O)C[C@H]1OC[C@@]31OC(C)=O)[C@H](C=C(C)C)NC(=O)OC(C)(C)C (some centres not stated) |  |  | Active |  |  |
| COC(=O)O[C@H]1C(=O)[C@@]2(C)C([C@H](OC(=O)c3ccccc3)[C@]3(O)C[C@H](OC(=O)[C@H](O)[C@H](C=C(C)C)NC(=O)OC(C)(C)C)C(C)=C1C3(C)C)[C@]1(OC(C)=O)CO[C@@H]1C[C@@H]2O (some centres not stated) | 0.14 nM | 9.7 nM |  |  |  |
| CCC(=O)O[C@H]1C(=O)[C@@]2(C)[C@H]([C@H](OC(=O)c3ccccc3)[C@]3(O)C[C@H](OC(=O)[C@H](O)[C@H](C=C(C)C)NC(=O)OC(C)(C)C)C(C)=C1C3(C)C)[C@]1(OC(C)=O)CO[C@@H]1C[C@@H]2O | 0.18 nM | 4 nM |  | Active |  |
| CC(=O)O[C@H]1C(=O)[C@@]2(C)[C@H]([C@H](OC(=O)c3ccccc3)[C@]3(O)C[C@H](OC(=O)[C@H](O)[C@@H](NC(=O)c4ccccc4)c4ccccc4)C(C)=C1C3(C)C)[C@]1(OC(C)=O)CO[C@@H]1C[C@@H]2O [PACLITAXEL] | 1.7 nM | 550 nM |  |  |  |
| CC/C=C\C/C=C\C/C=C\C/C=C\C/C=C\C/C=C/CCC(=O)O[C@@H](C(=O)O[C@H]1C[C@@]2(O)[C@@H](OC(=O)c3ccccc3)C3[C@](C)(C(=O)[C@H](OC(=O)N(C)C)C(=C1C)C2(C)C)[C@@H](O)C[C@H]1OC[C@@]31OC(C)=O)[C@H](C=C(C)C)NC(=O)OC(C)(C)C (some centres not stated) |  |  |  |  | Active |
| CC(=O)O[C@@]12CO[C@@H]1C[C@H](O)[C@@]1(C)C(=O)[C@H](OC(=O)N(C)C)C3=C(C)[C@@H](OC(=O)[C@H](O)[C@H](C=C(C)C)NC(=O)OC(C)(C)C)C[C@@](O)([C@@H](OC(=O)c4ccccc4)C12)C3(C)C (some centres not stated) | 0.13 nM | 7.4 nM |  |  |  |
| CC(=O)O[C@@]12CO[C@@H]1C[C@H](O)[C@@]1(C)C(=O)[C@H](OC(=O)C3CC3)C3=C(C)[C@@H](OC(=O)[C@H](O)[C@H](CC(C)C)NC(=O)OC(C)(C)C)C[C@@](O)([C@@H](OC(=O)c4ccccc4)C12)C3(C)C (some centres not stated) | 0.51 nM | 7.9 nM |  |  |  |
| CC(=O)O[C@@]12CO[C@@H]1C[C@H](O)[C@@]1(C)C(=O)[C@H](OC(=O)C3CC3)C3=C(C)[C@@H](OC(=O)[C@H](O)[C@H](C=C(C)C)NC(=O)OC(C)(C)C)C[C@@](O)([C@@H](OC(=O)c4ccccc4)[C@H]21)C3(C)C | 0.2 nM | 3.9 nM |  | Active |  |
| CC/C=C\C/C=C\C/C=C\C/C=C\C/C=C\C/C=C/CCC(=O)O[C@@H](C(=O)O[C@H]1C[C@@]2(O)[C@@H](OC(=O)c3ccccc3)C3[C@](C)(C(=O)[C@H](OC(C)=O)C(=C1C)C2(C)C)[C@@H](O)C[C@H]1OC[C@@]31OC(C)=O)[C@@H](NC(=O)c1ccccc1)c1ccccc1 (some centres not stated) |  |  |  | inactive |  |
